In patent publication US9133155B2, “Antibacterial agents: high-potency myxopyronin derivatives” (Rutgers, The State University of New Jersey, priority 2010, dated 2015):
In brackets after ≈: the same amount, converted by molar mass. Like-named read-outs stand apart in the source and are kept apart here.

Assays:
[1] = target: E. coli RNA polymerase σ^70 holoenzyme (Escherichia coli, UniProt P0A8T7+P0A8V2); assay: Inhibition of Escherichia coli RNA polymerase (fluorescence-detected); type: biochemical; settings: read-out: IC50 E. coli RNAP
Method: (§1) Fluorescence-detected RNA polymerase assays with E. coli RNA polymerase were performed by a modification of the procedure of Kuhlman et al., 2004 [Kuhlman, P., Duff, H. & Galant, A. (2004) A fluorescence-based assay for multisubunit DNA-dependent RNA polymerases. Anal. Biochem. 324, 183-190]. Reaction mixtures contained (20 μl): 0-100 nM test compound, 75 nM E. coli RNA polymerase σ^70 holoenzyme, 20 nM 384 bp DNA fragment containing the bacteriophage T4 N25 promoter, 100 μM ATP, 100 μM GTP, 100 μM UTP, 100 μM CTP, 50 mM Tris-HCl, pH 8.0, 100 mM KCl, 10 mM MgCl2, 1 mM DTT, 10 μg/ml bovine serum albumin, and 5.5% glycerol. Reaction components other than DNA and NTPs were pre-incubated for 10 min at 37° C. Reactions were carried out by addition of DNA and incubation for 5 min at 37° C., followed by addition of NTPs and incubation for 60 min at 37° C. DNA was removed by addition of 1 μl 5 mM CaCl2 and 2 U DNaseI (Ambion, Inc.), followed by incubation for 90 min at 37° C. RNA was quantified by addition of 100 μl RiboGreen RNA Quantitation Reagent (Invitrogen, Inc.; 1:500 dilution in Tris-HCl, pH 8.0, 1 mM EDTA), followed by incubation for 10 min at 25° C., followed by measurement of fluorescence intensity [excitation wavelength=485 nm and emission wavelength=535 nm; QuantaMaster QM1 spectrofluorometer (PTI, Inc.)].

S. aureus RNA polymerase = S. aureus RNA polymerase (Staphylococcus aureus, UniProt P47768+Q2G0N5); assay: Inhibition of Staphylococcus aureus RNA polymerase (fluorescence-detected); type: biochemical
[2] = target: M. tuberculosis RNA polymerase (Mycobacterium tuberculosis, UniProt P9WGY7+P9WGY9); assay: Inhibition of Mycobacterium tuberculosis RNA polymerase (fluorescence-detected); type: biochemical
Method: as §1
Fluorescence-detected RNA polymerase assays with M. tuberculosis RNA polymerase were performed as in Example 17.1, using reaction mixtures containing (20 μl): 0-100 nM test compound, 75 nM M. tuberculosis RNA polymerase core enzyme, 300 nM M. tuberculosis σ^A, 20 nM 384 bp DNA fragment containing the bacteriophage […] N25 promoter, 100 μM ATP, 100 μM GTP, 100 μM UTP, 100 μM CTP, 40 mM Tris-HCl, pH 8.0, 80 mM NaCl, 5 mM MgCl2, 2.5 mM DTT, and 12.7% glycerol.

[3] = test system: Acinetobacter baumannii ATCC 19606; assay: Inhibition of bacterial growth in culture (MIC, spiral gradient endpoint); type: cell-based; settings: for MIC: Acinetobacter baumannii, ATCC19606, Mueller-Hinton II agar, 16 h at 37° C.; for inhibition of Acinetobacter baumannii (in words): summary of Table 3
Description: (§2) Minimum inhibitory concentrations (MICs) for Staphylococcus aureus ATCC 12600, Enterococcus faecalis ATCC 19433, Acinetobacter baumannii ATCC 19606, and Escherichia coli D21f2tolC were quantified using spiral gradient endpoint assays, essentially as described [Wallace, A. and Corkill, J. (1989) Application of the spiral plating method to study antimicrobial action. J. Microbiol. Meths. […] Int. J. Exp. Clin. Chemother. 3, 31-38; Schalkowsky S. (1994) Measures of susceptibility from a spiral gradient of drug concentrations. Adv. Exp. Med. Biol. 349, 107-120]. Assays employed exponential-gradient plates containing 150 mm×4 mm Mueller-Hinton II cation-adjusted agar and 0.4-100 μg/ml of test compound. Plates were prepared using an Autoplate 4000 spiral plater (Spiral Biotech, Inc.). Saturated overnight cultures were swabbed radially onto plates, and plates were incubated for 16 h at 37° C. For each culture, the streak length was measured using a clear plastic template (Spiral Biotech, Inc.), the test-compound concentration at the streak endpoint was calculated using the program SGE (Spiral Biotech, Inc.), and the MIC was defined as the calculated test-compound concentration at the streak endpoint.

[4] = test system: Escherichia coli D21f2tolC; assay: as above; type: cell-based; settings: 16 h, read-out: MIC E. coli D21f2tolC
Description: as §2

[5] = test system: Enterococcus faecalis ATCC 19433; assay: as above; type: cell-based; settings: for MIC: Enterococcus faecalis, ATCC19433, Mueller-Hinton II agar, 16 h at 37° C., read-out: MIC E. faecalis 19433
Description: as §2

[6] = test system: Staphylococcus aureus ATCC 12600; assay: as above; type: cell-based; settings: for MIC: Staphylococcus aureus, ATCC12600, Mueller-Hinton II agar, 16 h at 37° C., read-out: MIC S. aureus 12600; for inhibition of Staphylococcus aureus compared with Myx B and 7-desmethyl-Myx B: summary of Table 3
Description: as §2

Staphylococcus aureus = assay: Antibacterial efficacy in mouse model of Staphylococcus aureus systemic infection (peritonitis model); type: in vivo, Swiss Webster mice; settings: for effect on survival in a mouse model of Staphylococcus aureus infection (in words): summary of Tables 4a-4c
Method: (§3) Female Swiss Webster mice were experimentally infected by intraperitoneal administration of 5×10^7 colony forming units of Staphylococcus aureus in 10% hog gastric mucin. Test compounds (2-3 mg/ml in vehicle [9-19% dimethyacetamide/8-16% Cremophor EL in water, v/v]), positive controls (2 mg/ml vancomycin in vehicle), and negative controls (vehicle only and saline only), were administered by intravenous injection into a tail vein 1 h and 5 h post-infection (200 μl per injection). Survival was monitored for 12 h post-infection, or for 24, 48, and 72 h post-infection. At the end of the monitoring period, surviving animals were euthanized.

[7] = Tolerability upon intravenous injection (peritonitis model study); type: in vivo, Swiss Webster mice; settings: daily total doses of at least 30 mg/kg; vehicles containing 9% to 19% dimethylacetamide and 8% to 16% Cremophor EL
Method: as §3

[8] = read-out: IC50 M. tuberculosis RNAP
[9] = Table 4c, total dose 50 mg/kg iv, vehicle 9% dimethylacetamide/8% Cremophor EL/83% water

Sequence of S. aureus RNA polymerase (P0A0J0 whole entry): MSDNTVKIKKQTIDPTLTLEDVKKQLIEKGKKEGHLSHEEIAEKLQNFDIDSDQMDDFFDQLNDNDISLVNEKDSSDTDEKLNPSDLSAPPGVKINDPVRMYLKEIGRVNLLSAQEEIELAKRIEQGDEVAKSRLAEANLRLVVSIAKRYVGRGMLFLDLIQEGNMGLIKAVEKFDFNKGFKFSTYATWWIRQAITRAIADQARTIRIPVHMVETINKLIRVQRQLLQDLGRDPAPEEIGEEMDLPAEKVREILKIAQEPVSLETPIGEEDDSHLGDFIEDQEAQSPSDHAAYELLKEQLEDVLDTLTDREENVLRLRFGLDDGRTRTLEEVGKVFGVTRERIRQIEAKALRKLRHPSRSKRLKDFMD
Sequence of S. aureus RNA polymerase (Q2G0N5 whole entry): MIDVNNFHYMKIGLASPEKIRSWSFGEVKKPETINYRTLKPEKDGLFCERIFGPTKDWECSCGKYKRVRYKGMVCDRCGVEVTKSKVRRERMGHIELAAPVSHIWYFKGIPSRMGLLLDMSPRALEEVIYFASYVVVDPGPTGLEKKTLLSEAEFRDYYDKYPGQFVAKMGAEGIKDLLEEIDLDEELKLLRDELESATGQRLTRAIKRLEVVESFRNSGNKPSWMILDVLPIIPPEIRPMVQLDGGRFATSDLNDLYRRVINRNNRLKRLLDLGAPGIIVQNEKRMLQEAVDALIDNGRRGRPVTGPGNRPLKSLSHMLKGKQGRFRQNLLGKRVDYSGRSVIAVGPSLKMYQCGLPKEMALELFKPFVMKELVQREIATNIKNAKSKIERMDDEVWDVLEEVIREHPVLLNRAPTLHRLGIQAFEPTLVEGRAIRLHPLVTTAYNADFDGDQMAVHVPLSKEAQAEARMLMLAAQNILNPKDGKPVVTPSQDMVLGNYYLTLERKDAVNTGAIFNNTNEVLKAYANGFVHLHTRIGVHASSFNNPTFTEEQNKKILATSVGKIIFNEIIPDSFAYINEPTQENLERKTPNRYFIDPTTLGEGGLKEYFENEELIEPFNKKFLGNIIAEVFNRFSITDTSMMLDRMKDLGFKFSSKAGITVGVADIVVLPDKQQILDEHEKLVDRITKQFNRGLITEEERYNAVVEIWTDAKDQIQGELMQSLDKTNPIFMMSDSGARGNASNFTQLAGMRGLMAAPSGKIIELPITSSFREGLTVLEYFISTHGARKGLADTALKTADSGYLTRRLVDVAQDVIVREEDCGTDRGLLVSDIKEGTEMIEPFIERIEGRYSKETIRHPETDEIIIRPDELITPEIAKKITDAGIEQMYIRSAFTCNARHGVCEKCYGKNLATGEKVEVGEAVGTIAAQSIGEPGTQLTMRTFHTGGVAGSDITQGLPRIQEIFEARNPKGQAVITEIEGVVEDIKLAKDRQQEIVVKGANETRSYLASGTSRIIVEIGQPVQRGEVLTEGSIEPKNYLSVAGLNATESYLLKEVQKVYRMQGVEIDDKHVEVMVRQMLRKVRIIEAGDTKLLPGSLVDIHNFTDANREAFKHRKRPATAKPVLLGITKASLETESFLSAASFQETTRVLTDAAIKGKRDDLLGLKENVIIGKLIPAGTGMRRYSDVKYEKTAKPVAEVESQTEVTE
Sequence of S. aureus RNA polymerase (Q2FW32 whole entry, further chain): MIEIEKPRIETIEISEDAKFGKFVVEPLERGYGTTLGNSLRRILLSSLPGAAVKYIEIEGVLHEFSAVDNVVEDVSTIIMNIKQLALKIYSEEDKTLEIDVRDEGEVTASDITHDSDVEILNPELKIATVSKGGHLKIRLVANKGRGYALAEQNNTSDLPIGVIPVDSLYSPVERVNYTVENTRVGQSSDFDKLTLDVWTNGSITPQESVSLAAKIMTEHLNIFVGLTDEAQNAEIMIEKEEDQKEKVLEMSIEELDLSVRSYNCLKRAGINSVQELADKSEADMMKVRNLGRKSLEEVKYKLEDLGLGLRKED
Sequence of S. aureus RNA polymerase (P47768 whole entry): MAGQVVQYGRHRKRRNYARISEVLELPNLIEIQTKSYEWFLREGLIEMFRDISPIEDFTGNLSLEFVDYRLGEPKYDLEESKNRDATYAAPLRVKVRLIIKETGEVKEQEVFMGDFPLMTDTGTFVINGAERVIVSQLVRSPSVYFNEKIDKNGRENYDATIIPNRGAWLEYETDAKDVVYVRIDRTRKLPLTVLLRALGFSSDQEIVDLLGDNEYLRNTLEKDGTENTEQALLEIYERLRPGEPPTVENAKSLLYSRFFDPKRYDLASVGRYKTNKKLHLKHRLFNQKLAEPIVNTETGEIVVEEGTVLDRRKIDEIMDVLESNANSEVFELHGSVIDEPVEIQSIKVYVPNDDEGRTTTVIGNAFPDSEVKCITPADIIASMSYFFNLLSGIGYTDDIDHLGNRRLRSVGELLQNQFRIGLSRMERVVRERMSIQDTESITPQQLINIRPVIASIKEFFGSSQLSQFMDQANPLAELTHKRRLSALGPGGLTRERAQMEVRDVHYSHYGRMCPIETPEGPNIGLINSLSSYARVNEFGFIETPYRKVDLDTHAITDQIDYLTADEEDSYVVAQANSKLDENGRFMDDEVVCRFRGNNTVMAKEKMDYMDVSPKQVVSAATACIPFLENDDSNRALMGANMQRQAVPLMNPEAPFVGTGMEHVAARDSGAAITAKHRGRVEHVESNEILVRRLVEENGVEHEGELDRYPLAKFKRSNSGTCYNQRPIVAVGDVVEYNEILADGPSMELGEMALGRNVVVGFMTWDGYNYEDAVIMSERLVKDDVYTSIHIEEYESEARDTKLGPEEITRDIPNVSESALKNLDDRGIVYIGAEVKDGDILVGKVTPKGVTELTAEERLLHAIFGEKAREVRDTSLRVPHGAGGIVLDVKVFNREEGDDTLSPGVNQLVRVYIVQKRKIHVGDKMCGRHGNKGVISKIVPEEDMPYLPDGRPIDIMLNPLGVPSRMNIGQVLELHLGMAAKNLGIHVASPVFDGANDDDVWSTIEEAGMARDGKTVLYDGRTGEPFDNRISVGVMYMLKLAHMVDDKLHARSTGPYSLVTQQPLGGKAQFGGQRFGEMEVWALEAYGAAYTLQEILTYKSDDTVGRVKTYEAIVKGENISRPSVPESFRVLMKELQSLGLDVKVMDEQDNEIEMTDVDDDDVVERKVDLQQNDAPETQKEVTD

SMILES | IC50 [1] [nM] | IC50 (S. aureus RNA polymerase; read-out: IC50 S. aureus RNAP) [nM] | IC50 [2, 8] [nM] | MIC [3] [µg/mL] | MIC [4] [µg/mL] | MIC [5] [µg/mL] | MIC [6] [µg/mL] | IC50 (S. aureus RNA polymerase) [nM] | IC50 [2] [nM] | inhibition of Acinetobacter baumannii (in words) [3] | 12-hour survival (Staphylococcus aureus; Table 4b, total dose 50 mg/kg iv, vehicle 19% dimethylacetamide/16% Cremophor EL/73% water) [%] | 24-hour survival (Staphylococcus aureus; [9]) [%] | 48-hour survival (Staphylococcus aureus; [9]) [%] | 72-hour survival (Staphylococcus aureus; [9]) [%] | effect on survival in a mouse model of Staphylococcus aureus infection (in words) (Staphylococcus aureus) | acute toxicity upon intravenous injection [7] | inhibition of Staphylococcus aureus compared with Myx B and 7-desmethyl-Myx B [6] | 12-hour survival (Staphylococcus aureus; Table 4a, total dose 30 mg/kg iv, 1 h and 5 h post-infection, vehicle 19% dimethylacetamide/8% Cremophor EL/73% water) [%] | inhibition of Enterococcus faecalis compared with Myx B and 7-desmethyl-Myx B ([5]; summary of Table 3)
CCCCCCCC/C=C/C=C(\C)C(=O)c1c(O)cc([C@H](C)CC/C=C/NC(=O)OC)oc1=O (racemic) [compound 4, methyl ((E)-5-(4-hydroxy-3-((2E,4E)-2-methyltrideca-2,4-dienoyl)-2-oxo-2H-pyran-6-yl)hex-1-enyl)carbamate] | 4.6 | 8.3 | 320 | 3.1 (≈ 6.55 µM) | < 0.18 | > 40 | 9.4 (≈ 19.8 µM) |  |  |  |  |  |  |  |  |  |  |  | 
CCCC/C(C)=C/C=C(\C)C(=O)c1c(O)cc(CCC/C=C/NC(=O)OC)oc1=O [7-desmethyl-Myx B, Methyl ((E)-5-(3-((2E,4E)-2,5-dimethylnona-2,4-dienoyl)-4-hydroxy-2-oxo-2H-pyran-6-yl)pent-1-en-1-yl)carbamate, reference compound] | 22 |  |  | > 40 | 0.195 (≈ 0.467 µM) | 25 (≈ 59.9 µM) | 3.1 (≈ 7.43 µM) | 140 | 81 | not detectably inhibited |  |  |  |  |  |  |  |  | 
CCCC/C(C)=C/C=C(\C)C(=O)c1c(O)cc(C(C)CC/C=C/NC(=O)OC)oc1=O (centres unmarked) [Myx B, Methyl ((E)-5-(3-((2E,4E)-2,5-dimethylnona-2,4-dienoyl)-4-hydroxy-2-oxo-2H-pyran-6-yl)hex-1-en-1-yl)carbamate, reference compound] | 13 |  |  | > 40 | 0.098 (≈ 0.227 µM) | 13 (≈ 30.1 µM) | 0.78 (≈ 1.81 µM) | 66 | 130 | not detectably inhibited | 50 | 75 | 50 | 50 | increase survival | tolerated without acute toxicity |  |  | 
CCCCC/C=C/C=C(\C)C(=O)c1c(O)cc(C(C)CC/C=C/NC(=O)OC)oc1=O (centres unmarked) [compound 1, Methyl ((E)-5-(4-hydroxy-3-((2E,4E)-2-methyldeca-2,4-dienoyl)-2-oxo-2H-pyran-6-yl)hex-1-en-1-yl)carbamate] | 12 | 52 | 85 | > 40 | 0.3 (≈ 0.695 µM) | > 40 | 1.4 (≈ 3.24 µM) |  |  |  |  |  |  |  |  |  |  |  | 
CCCCCC/C=C/C=C(\C)C(=O)c1c(O)cc(C(C)CC/C=C/NC(=O)OC)oc1=O (centres unmarked) [compound 2, Methyl ((E)-5-(4-hydroxy-3-((2E,4E)-2-methylundeca-2,4-dienoyl)-2-oxo-2H-pyran-6-yl)hex-1-en-1-yl)carbamate] | 11 | 23 | 70 | 25 (≈ 56.1 µM) | 0.23 (≈ 0.516 µM) | > 40 | 1.4 (≈ 3.14 µM) |  |  |  |  |  |  |  |  |  |  |  | 
CCCCCCC/C=C/C=C(\C)C(=O)c1c(O)cc(C(C)CC/C=C/NC(=O)OC)oc1=O (centres unmarked) [compound 3, Methyl ((E)-5-(4-hydroxy-3-((2E,4E)-2-methyldodeca-2,4-dienoyl)-2-oxo-2H-pyran-6-yl)hex-1-en-1-yl)carbamate] | 6.8 | 17 | 270 | 5.6 (≈ 12.2 µM) | < 0.18 | > 40 | 2.4 (≈ 5.22 µM) |  |  |  |  |  |  |  |  |  |  |  | 
CCCCCC/C(C)=C/C=C(\C)C(=O)c1c(O)cc(CCC/C=C/NC(=O)OC)oc1=O [compound 6, Methyl ((E)-5-(3-((2E,4E)-2,5-dimethylundeca-2,4-dienoyl)-4-hydroxy-2-oxo-2H-pyran-6-yl)pent-1-en-1-yl)carbamate] | 3.9 | 12 | 47 | 5.5 (≈ 12.3 µM) | 0.076 (≈ 0.171 µM) | 13 (≈ 29.2 µM) | 0.45 (≈ 1.01 µM) |  |  |  |  |  |  |  |  |  | more potently than Myx B and 7-desmethyl-Myx B |  | 
CCCCCC/C(C)=C/C=C(\C)C(=O)c1c(O)cc(CCC/C=C/NC(=O)OCC)oc1=O [compound 7, Ethyl ((E)-5-(3-((2E,4E)-2,5-dimethylundeca-2,4-dienoyl)-4-hydroxy-2-oxo-2H-pyran-6-yl)pent-1-en-1-yl)carbamate] | 63 | 93 | 450 | > 40 | 0.37 (≈ 0.805 µM) | > 40 | 12 (≈ 26.1 µM) |  |  |  |  |  |  |  |  |  |  |  | 
CCCCC/C(C)=C/C=C(\C)C(=O)c1c(O)cc(C(C)CC/C=C/NC(=O)OC)oc1=O (centres unmarked) [compound 8, Methyl ((E)-5-(3-((2E,4E)-2,5-dimethyldeca-2,4-dienoyl)-4-hydroxy-2-oxo-2H-pyran-6-yl)hex-1-en-1-yl)carbamate] | 4 | 9.2 | 19 |  |  |  | 0.5 (≈ 1.12 µM) |  |  |  |  |  |  |  | increase survival | tolerated without acute toxicity | more potently than Myx B and 7-desmethyl-Myx B | 75 | 
CCCCCC/C(C)=C/C=C(\C)C(=O)c1c(O)cc(C(C)CC/C=C/NC(=O)OC)oc1=O (centres unmarked) [compound 9, Methyl ((E)-5-(3-((2E,4E)-2,5-dimethylundeca-2,4-dienoyl)-4-hydroxy-2-oxo-2H-pyran-6-yl)hex-1-en-1-yl)carbamate] | 4.7 | 13 | 36 | 5.5 (≈ 12 µM) | 0.076 (≈ 0.165 µM) | 6.4 (≈ 13.9 µM) | 0.34 (≈ 0.74 µM) |  |  |  |  |  |  |  |  |  | more potently than Myx B and 7-desmethyl-Myx B |  | more potently than Myx B and 7-desmethyl-Myx B
CCCCC/C(C)=C\C=C(/C)C(=O)c1c(O)cc(CCC/C=C/NC(=O)OC)oc1=O [compound 10, Methyl ((E)-5-(3-((2E,4Z)-2,5-dimethyldeca-2,4-dienoyl)-4-hydroxy-2-oxo-2H-pyran-6-yl)pent-1-en-1-yl)carbamate] | 40 | 100 | 340 | > 40 | 0.39 (≈ 0.904 µM) | > 40 | 3.3 (≈ 7.65 µM) |  |  |  |  |  |  |  |  |  |  |  | 
